In one data set the test system is HL-60. Kind of data set: Cell proliferation MTS assay. The following applies: Homo sapiens; HL-60, MTS, 24 hours. It counts as cell-based. As to the method: (§1) AML cell lines (5×10^3 cells/well) were seeded in 96-well plates and grown for 24 to 96 h in serum (10%)-containing medium in the presence or absence of inhibitors at the indicated concentrations. Proliferation was analyzed by means of an MTS assay using the CellTiter 96 Aqueous One Solution Cell Proliferation Assay (Promega, Madison, Wis., USA), according to the manufacturer's instructions. Data are mean with standard deviation from three independent experiments in technical triplicates. For the screening of 160 compounds from the UC library, the cell metabolic activity was assessed at 24 hours of treatment of MOLM-13 cells. Top 15 candidates were re-screened at 2 μM, and the cell metabolic activity was determined at 24 hours of treatment. In certain experiments, cell viability was determined by staining the cells with trypan blue at a 1/2 dilution and counting total number of viable cells upon treatment with UC-764864 or DMSO control. The cells were counted daily for 4 days using an automated cell counter (Countess II FL from Life Technologies). The cell proliferation in primary AMLs in FIG. 9E was performed as follows: 50,000 cells were plated in duplicate in a 96 well plate in IMDM containing 20% heat inactivated FBS plus 10 ng/ml of each SCF, IL3, IL6, TPO, and FLT3. UC-764864 was added at the indicated concentrations and cells were incubated with drug for 3 days, at which point cell viability was measured by MTS according to manufacturer's instructions.
(In general: Formazan colour is commonly taken as a measure of viable cells.)

The test system of another data set is KG-1a. The data set is described as follows: Cell proliferation MTS assay. It counts as cell-based. The following applies: Homo sapiens, 24 hours. The procedure: as §1
Another data set relates to Kasumi-1. Kind of data set: Cell proliferation MTS assay. The following applies: Homo sapiens; Kasumi-1, MTS, 24 hours. Format: cell-based. The procedure:
as §1

The test system of a further data set is MDS92. Kind of data set: Cell proliferation MTS assay. The following applies: Homo sapiens, 24 hours. It counts as cell-based. The procedure: as §1
In the next data set the test system is MDSL. The data set is described as follows: Cell proliferation MTS assay. It counts as cell-based. The note with it: Homo sapiens, 24 hours. As to the method:
as §1

Another data set concerns MOLM-14. The data set is described as follows: Cell proliferation MTS assay. It counts as cell-based. The following applies: Homo sapiens; MOLM-14, MTS, 24 hours. As to the method: as §1
For a further data set, the system named is MV4-11. Kind of data set: Cell proliferation MTS assay. It counts as cell-based. The following applies: Homo sapiens; MV4-11, MTS, 24 hours. As to the method:
as §1

The next data set deals with NOMO-1. Kind of data set: Cell proliferation MTS assay. Format: cell-based. The note with it: Homo sapiens; NOMO-1, MTS, 24 hours. The procedure: as §1
The subject of another data set is THP-1. Kind of data set: Cell proliferation MTS assay. Format: cell-based. The following applies: Homo sapiens; THP-1, MTS, 24 hours. The procedure: as §1
Data set [1] deals with AML cells (THP-1, MOLM-13, OCI-AML2, OCI-AML3, MDSL). Kind of data set: Colony formation (clonogenic) assay in AML/MDS cell lines. Format: cell-based, human. The following applies: 2 μM. The procedure:
In order to determine viability after UBE2N knockdown or inhibition, 1×10^6 AML cells were washed with PBS and mixed with pre-diluted APC-conjugated Annexin V (BD Pharmigen, Franklin Lakes, N.J.) and Propidium iodide (PI) (Invitrogen ThermoFisher 00-6990-42, Waltham, Mass.). Cells were stained at room temperature for 15 minutes and suspended in 0.5 ml of Annexin V incubation buffer (eBiosciences 88-8007-74, San Diego, Calif.) for analysis using a BD FACS Canto System (BD Biosciences, San Jose, Calif.). For UBE2N knockdown experiments, PI−/GFP+ cells were sorted using a MoFlo XDP sorter (Beckman Coulter, Brea, Calif.) and plated in methylcellulose (StemCell Technologies H4236, Vancouver, CA) at 1000 cells/ml in 35 mm culture dishes. For UBE2N inhibition experiments, cell lines were plated in methycellulose (StemCell Technologies H4236, Vancouver, CA) at the indicated concentrations of inhibitor. Cells were incubated at 37° C. and 5% CO2. Colonies were scored after 7 days in culture. For UBE2N or UBE2N C87S overexpression experiments, MOLM-13 cells were transduced with lentivectors overexpressing UBE2N wild type or mutant in the presence of polybrene (8 μg/ml). […] Colonies were scored at 7 days. […] Colonies were manually scored at 14-16 days after plating or counted with STEMVision (StemCell Technologies, Vancouver, CA).

Another data set in a line: In vivo toxicity study. The following applies: 4 doses of 25 mg/kg over 2 weeks, mice. As to the method: PK studies of UC-764864 and UC-764865 were performed in C57BL/6 mice (18-22 g). 10 mg/kg and 20 mg/kg UC-764864 or UC-764865 was administered through intraperitoneal (i.p.) injection. After dosing, blood samples were collected at 15 min, 30 min, 1 h, 2 h, 4 h, 8 h, 12 h, and 24 h. Samples from three animals were collected at each time point. Approximately 500 μL of blood was collected via orbital vein from each mouse, processed, and analyzed by LC-MS. Standard curves were prepared in blood covering the concentration range of 50-3,0000 ng/mL. Using the data from the standard curves, calibration curves were generated for PK tests. For in vivo toxicity studies, 25 mg/kg UC-764864, UC-764865, 10 mg/kg NSC697923 or vehicle control (methocel 0.5% tween-20 0.2%,0.1% DMSO in water) were administered in B6.SJL-Ptprca Pepcb/BoyJ mice (n=3/group) through i.p. injection. For 2 weeks the mice received 4 doses of each compound. Routine body weight and blood counts were performed. At the end of the study, tissues were harvested, placed in 10% buffered formalin, stained with hematoxylin and eosin (H&E) and examined by a pathologist.

Some results are limits rather than exact numbers.

Turning to `CCc1ccc(C(=O)C=CSc2nc3ccc(C)cc3[nH]2)cc1` [UC-764864, 1-(4-ethylphenyl)-3-[(6-methyl-1H-benzimidazol-2-yl)sulfanyl]prop-2-en-1-one], the IC50 (usually the point on the concentration scale where inhibition reaches its midpoint) was 4.3 µM with HL-60; greater than 10 µM in the data set on KG-1a; 6.6 µM in the data set on Kasumi-1; greater than 10 µM in the data set with MDS92; 5.6 µM in the data set on MDSL; 20 nM in the data set on MOLM-14. Further, the figures for the IC50 in the data set with MV4-11, in the data set with NOMO-1 and in the data set with THP-1 were 5 µM, 6.7 µM and 2500 nM, respectively. The “reduction in colony formation vs vehicle” value in [1] was 20-95%.
As for `COc1ccc(C(=O)C=CSc2nc3ccc(C)cc3[nH]2)cc1` [UC-764865, 1-(4-methoxyphenyl)-3-[(6-methyl-1H-benzimidazol-2-yl)sulfanyl]prop-2-en-1-one], in “In vivo toxicity study”, the “body weight, hematologic blood parameters, survival” value is listed as “did not significantly affect”; the “histological evaluation of several tissues” value is “no evidence of overall tissue toxicity”; the “tolerability after repeated administration” value is recorded as “no abnormalities noted”.

The record behind these values is patent US20220267753A1, “RATIONAL THERAPEUTIC TARGETING OF ONCOGENIC IMMUNE SIGNALING STATES IN MYELOID MALIGNANCIES VIA THE UBIQUITIN CONJUGATING ENZYME UBE2N” (CHILDREN'S HOSPITAL MEDICAL CENTER, priority 2019, published 2022).
